The NIST ThermoML archive (doi:10.1016/j.jct.2013.03.015)

Assay: molar heat capacity at constant pressure; xn = mol fraction of the nth substance listed
Conditions: 101 kPa, Crystal, relaxation calorimetry - PPMS by Quantum Design

[Cl-].[K+] [potassium chloride] + [Cl-].[Na+]
Conditions | molar heat capacity at constant pressure [J/K/mol]
40.5 K, x2 = 0.2 | 15.06
40.52 K, x2 = 0.1 | 15.25
40.53 K, x2 = 0.9 | 10.98
43.41 K, x2 = 0.2 | 16.89
43.43 K, x2 = 0.1 | 17.11
43.45 K, x2 = 0.9 | 12.63
46.53 K, x2 = 0.2 | 18.81
46.57 K, x2 = 0.1 | 19.04
46.58 K, x2 = 0.9 | 14.4
49.87 K, x2 = 0.2 | 20.73
49.91 K, x2 = 0.1 | 21.01
49.93 K, x2 = 0.9 | 16.28
53.47 K, x2 = 0.2 | 22.73
53.5 K, x2 = 0.1 | 23
53.53 K, x2 = 0.9 | 18.23
57.32 K, x2 = 0.2 | 24.73
57.34 K, x2 = 0.1 | 25.02
57.38 K, x2 = 0.9 | 20.25
61.44 K, x2 = 0.2 | 26.7
61.47 K, x2 = 0.1 | 26.98
61.51 K, x2 = 0.9 | 22.26
65.86 K, x2 = 0.2 | 28.67
65.89 K, x2 = 0.1 | 28.95
65.94 K, x2 = 0.9 | 24.31
70.6 K, x2 = 0.2 | 30.6
70.63 K, x2 = 0.1 | 30.88
70.69 K, x2 = 0.9 | 26.32
75.67 K, x2 = 0.2 | 32.39
75.7 K, x2 = 0.1 | 32.61
75.77 K, x2 = 0.9 | 28.27
81.11 K, x2 = 0.2 | 34.17
81.13 K, x2 = 0.1 | 34.4
81.21 K, x2 = 0.9 | 30.13
86.93 K, x2 = 0.2 | 35.85
86.95 K, x2 = 0.1 | 36.07
87.05 K, x2 = 0.9 | 32.29
93.14 K, x2 = 0.1 | 37.49
93.15 K, x2 = 0.2 | 37.32
93.3 K, x2 = 0.9 | 34.01
99.83 K, x2 = 0.1 | 39.05
99.85 K, x2 = 0.2 | 38.84
100.02 K, x2 = 0.9 | 35.79
107.02 K, x2 = 0.1 | 40.33
107.03 K, x2 = 0.2 | 40.15
107.21 K, x2 = 0.9 | 37.38
114.72 K, x2 = 0.1 | 41.63
114.72 K, x2 = 0.2 | 41.45
114.92 K, x2 = 0.9 | 38.92
122.97 K, x2 = 0.1 | 42.71
122.97 K, x2 = 0.2 | 42.57
123.18 K, x2 = 0.9 | 40.27
131.81 K, x2 = 0.1 | 43.7
131.82 K, x2 = 0.2 | 43.53
132.04 K, x2 = 0.9 | 41.45
141.3 K, x2 = 0.1 | 44.69
141.3 K, x2 = 0.2 | 44.51
141.54 K, x2 = 0.9 | 42.61
151.45 K, x2 = 0.2 | 45.39
151.46 K, x2 = 0.1 | 45.56
151.71 K, x2 = 0.9 | 43.67
162.35 K, x2 = 0.2 | 46.18
162.37 K, x2 = 0.1 | 46.3
162.61 K, x2 = 0.9 | 44.81
174.02 K, x2 = 0.2 | 46.93
174.06 K, x2 = 0.1 | 47.07
174.32 K, x2 = 0.9 | 45.52
186.55 K, x2 = 0.2 | 47.5
186.58 K, x2 = 0.1 | 47.69
186.88 K, x2 = 0.9 | 46.21
199.96 K, x2 = 0.2 | 48.19
199.99 K, x2 = 0.1 | 48.31
200.33 K, x2 = 0.9 | 47.11
214.35 K, x2 = 0.2 | 48.72
214.36 K, x2 = 0.1 | 48.85
214.74 K, x2 = 0.9 | 47.78
229.74 K, x2 = 0.2 | 49.19
229.76 K, x2 = 0.1 | 49.26
230.17 K, x2 = 0.9 | 48.37
246.25 K, x2 = 0.2 | 49.8
246.27 K, x2 = 0.1 | 49.83
246.73 K, x2 = 0.9 | 49.07
263.91 K, x2 = 0.2 | 50.18
263.93 K, x2 = 0.1 | 50.3
264.44 K, x2 = 0.9 | 49.55
282.86 K, x2 = 0.2 | 50.68
282.87 K, x2 = 0.1 | 50.88
283.42 K, x2 = 0.9 | 50.22
303.12 K, x2 = 0.2 | 51.21
303.18 K, x2 = 0.1 | 51.27
303.77 K, x2 = 0.9 | 50.61
